From patent US20260009799A1, “CA-IX TARGETING FLUORESCENT PROBES” (BRACCO IMAGING S.P.A., priority 2022, published 2026)

Key:
[1] = Optical characterization (excitation/emission maxima, molar extinction coefficient); type: physicochemical; conditions: for Max Em (nm, PBS pH 7.4) / Max Em (nm, Seronorm): emission maximum; for Max Em (nm, Seronorm) / Max Ex (nm, Seronorm): Seronorm control serum; for Max Ex (nm, PBS pH 7.4) / Max Ex (nm, Seronorm): excitation maximum
Description: A dual-beam UV-VIS spectrophotometer (Lambda 40, Perkin Elmer) was used to determine the absorbance (Abs) of the compounds of the invention. Emission/excitation (Em/Ex) spectra were carried out on a spectrofluorometer (FluoroLog-3 1IHR-320, Horiba Jobin Yvon) equipped with an F-3018 integrating sphere accessory. The measurements were performed using an excitation wavelength at maximum absorbance of different dyes, and the sample was excited with a 450 W Xenon light Source. Detection was performed by photomultiplier tubes (PMT-NIR) cooled detector or by TBX-04 detector. Dye solutions were carefully prepared to have an absorbance lower than 0.1 (optical densities) to minimize re-absorption phenomena.
The compounds of the invention were characterized in terms of their optical properties in vitro in aqueous medium (i.e., water/PBS pH 7.4) and in a clinical chemistry control serum (Seronorm, Sero SA), mimicking the chemical composition and optical properties of human serum. All solutions were freshly prepared. In particular, the compounds of the invention are characterized by absorption maxima comprised in the range from about 750 nm to 780 nm.
The excitation and emission maxima in PBS and Seronorm and the molar extinction coefficient (ε) in water of representative compounds of formula (I) are shown in Table I in comparison with the known CA-IX targeting fluorescent probe named Hypoxyfluor-1 (HF-1, for instance disclosed in Bioconjugate Chem 2018, 29, 3320-3331). […] Moreover, the extinction coefficients were higher than 200,000 mM^−1 cm^−1 for all compounds.

[2] = target: T1, CA-IX expressing HT-29 cells (Homo sapiens, UniProt Q16790); test: Cellular binding assessment by flow cytometry; conditions: for Kd: HT-29 cells, 1 hour 30 min on ice, flow cytometry, read-out: CA-IX receptor affinity (KD, nM to HT-29 cells); for KD to HT-29 cells, fold lower than corresponding Reference compound: compound 1 vs Reference 2, compound 2 vs Reference 3; for KD to HT-29 cells compared with Reference 1 (HF-1): versus Reference 1 (HF-1)
T1 construct: CA-IX, expressed in its physiological environment at the cell-surface; host or cells: HT-29 human colorectal adenocarcinoma cells
Description: Human colon adenocarcinoma HT-29 cells (ATCC) used for the cellular binding experiments were cultured in McCoy's 5A medium (Sigma-Aldrich), supplemented with 10% HyClone Fetal Clone III (Euroclone), 2 mM L-glutamine (Sigma-Aldrich), 100 IU/mL penicillin, 0.1 mg/mL streptomycin, 0.25 μg/mL amphotericin B (Antibiotic-Antimycotic solution, Life Technologies) and cells were grown at 37° C. in humidified atmosphere enriched with 5% CO2. DPBS without MgCl2 and CaCl2) (Sigma-Aldrich) was used for cell rinsing.
Indeed, by using the anti-human CA-IX antibody MAB2188 (R&D Systems) and the DAKO […], according to the instruction of the datasheet, HT-29 cells were estimated to express about 150,000 CA-IX molecules per cell. Thus, HT-29 cells were used to measure the binding of all compounds to CA-IX, expressed in its physiological environment at the cell-surface. Briefly, HT-29 cells were detached with StemPro® Accutase® Cell Dissociation Reagent (Life Technologies), collected in DPBS and counted. At least 2·10^5 HT-29 cells were placed in 1.5 mL tubes on ice and resuspended in 50-100 μL of cold FACS buffer (eBioscience™ Flow Cytometry Staining Buffer, Invitrogen) containing scalar concentrations of compounds (HF-1, reference 2, and compound 1: range 0-20 μM; reference 3: range 0-24 μM; compound 2: range 0-10 μM). After incubation (1 hour and 30 min on ice in the dark), cells were rinsed 3 times in 300 μL of cold FACS buffer by centrifugation (5 min, 4° C., 350 RCF), discarding the supernatant. Cell pellets were then resuspended in 200 μL of cold FACS buffer (or in an adequate volume in order to obtain no more than 1000 recorded events per μL during FACS analysis) and analyzed with the flow cytometer Accuri™ C6 (BD Biosciences). The mean cell-associated fluorescence was plotted against concentration and the dissociation constant at equilibrium (KD) was inferred by mathematical fitting with GraphPad Prism v.9 software, according to the following equation: […]
where Bmax is the maximum specific binding in the same units as Y; KD is the equilibrium dissociation constant, in the same units as X; NS is the slope of nonspecific binding in Y units divided by X units; and background is the amount of nonspecific binding with no added Compound.
All compounds were analyzed in at least three independent experiments.

[3] = system: hypoxic HT-29 colorectal tumor, subcutaneously induced; test: In vivo tumor optical imaging (IVIS Spectrum), tumor-to-background ratio; parameters: species or system mice; conditions: 24 hours after intravenous administration, 1 nmol/mouse, tumor vs hind limb muscle
Description: HT-29 cells were collected and washed once with serum-free medium. Five million HT-29 cells were suspended in 0.1 mL serum-free medium and injected subcutaneously in the right flank of 5 weeks old mice. Tumor development was followed by caliper measurement twice a week, from 7 days after inoculation. Tumor volume was calculated according to the formula: (L*W2)/2, where L and W are the maximum length and width of the tumor.
Optical Imaging experiments on HT-29 tumor bearing animals were performed after administration of Reference 1, 2 and 3, and compounds 1 and 2, all at a dose of 1 nmol/mouse in an administration volume of 0.1 mL (corresponding to about 5 mL/kg, considering a 20 g-mouse) at an injection rate of about 1 mL/min, by the IVIS Spectrum system when the tumor reached at least 200 mm^3 volume. For each group, in vivo OI experiments were performed at 0.5, 1, 2, 3, 4, 6 and 24 hours after intravenous administration of the fluorescent compounds. During imaging experiments animals were maintained under gaseous anesthesia. Regions of interest (ROIs) were drawn on the tumor and on a reference background healthy region (hind limb muscle) of the mouse for each fluorescence image at every time point to evaluate signal intensity in the tissues (expressed as Average Radiant Efficiency). The ratio between the fluorescence signal in the tumor and in the background healthy tissue (tumor-to-background ratio, TBR) was then calculated to assess the contrast.
All the compounds of the invention and the References were tested at a dose of 1 nmol/mouse.

Max Em (nm, PBS pH 7.4) [1]	Max Em (nm, Seronorm) [1]	Max Ex (nm, PBS pH 7.4) [1]	Max Ex (nm, Seronorm) [1]	Kd [2]	KD to HT-29 cells, fold lower than corresponding Reference compound [2]	KD to HT-29 cells compared with Reference 1 (HF-1) [2]	Compound	in vivo TBR (mean ± SD) [3]
806 nm	812 nm	782 nm	792 nm	174 ± 15 nM	2 fold	rather comparable	CC1(C)C(/C=C/C2=C(Oc3ccc(S(=O)(=O)O)cc3)C(=C/C=C3/N(CCCCCC(=O)NCCCCCCCC(=O)Nc4nnc(S(N)(=O)=O)s4)c4ccc(C(=O)NC[C@H](O)[C@@H](O)[C@H](O)[C@H](O)CO)cc4C3(C)C)/CCC2)=[N+](CCCCS(=O)(=O)[O-])c2ccc(C(=O)NC[C@H](O)[C@@H](O)[C@H](O)[C@H](O)CO)cc21 [Compound 1]	5.2 ± 1.0
788 nm	790 nm	758 nm	762 nm	58 ± 9 nM	more than 4 fold	2 fold	CC(CC[N+]1=C(/C=C/C=C/C=C/C=C2/N(CCCCCC(=O)NCCCCCCCC(=O)Nc3nnc(S(N)(=O)=O)s3)c3ccc(C(=O)NC[C@H](O)[C@@H](O)[C@H](O)[C@H](O)CO)cc3C2(C)C)C(C)(C)c2cc(C(=O)NC[C@H](O)[C@@H](O)[C@H](O)[C@H](O)CO)ccc21)S(=O)(=O)[O-] (stereo partly shown) [Compound 2]	10.1 ± 3.1
